Laboratory results taken from paper doi:10.1101/2024.08.19.608619, “Discovery of potent SARS-CoV-2 nsp3 macrodomain inhibitors uncovers lack of translation to cellular antiviral response” (bioRxiv, 2024).
≈ marks a conversion by molar mass, not a printed value. Where two headings read alike, the source gives them in different places.

Assays:
[1] = Hepatic microsomal stability, MLM; assay type: in vitro ADME
[2] = system: HeLa-ACE2 cells; details: for perc_max_measured: highest measured response of the dose series; for perc_min_measured: lowest measured response of the dose series
[3] = in vitro; details: human, hela-ace2 cells, 50.0
[4] = Hepatic microsomal stability, HLM; assay type: in vitro ADME, human; details: In vitro human liver microsomal stability; for perc_remaining_no_cofactor: no cofactor
[5] = Permeability Papp (AB) MDR1/MDCKII; details: for papp_a_to_b_mean: A to B
[6] = LogD; details: pH 7.4; In vitro LogD
[7] = In vitro kinetic solubility; details: In vitro kinetic solubility, ph 7.4
[8] = system: SARS-CoV-2, isolate USA-WA1/2020; assay: microbe, parasite or virus in culture; assay type: cell-based; details: HeLa-ACE2 SARS-CoV-2 antiviral effect without P-gp inhibitor; for perc_max_measured: maximum measured response of dose series; for perc_min_measured: minimum measured response of dose series; for EC50: read-out: ec50; for EC90: read-out: ec90
[9] = In vitro mouse liver microsomal stability
[10] = In vitro mouse liver microsomal stability, no cofactor
[11] = In vitro MDR1-MDCKII permeability, mean
[12] = In vitro MDR1-MDCKII permeability, no inhibitor
[13] = In vitro MDR1-MDCKII permeability, recovery A to B, mean
[14] = In vitro MDR1-MDCKII permeability, recovery A to B, no inhibitor
[15] = protocol HeLa-ACE2 cytotoxicity
[16] = In vitro mouse liver microsomal stability; no cofactor

CC(C)[C@H](Nc1ncnc2[nH]c(-c3cnn(C)c3C#N)cc12)c1ccc2c(n1)NC(=O)CO2 (single isomer, unassigned) [ASAP-0011177]
clint [1, 9]: 131.0 µL/min/mg | perc_remaining [1, 9]: 12.0% | t_half [1, 9]: 12.8 min | perc_remaining_no_cofactor [1, 10]: 85.0% | CC50 ([2]; HeLa-ACE2 cytotoxicity): > 20 µM | cc10 ([2]; HeLa-ACE2 cytotoxicity): > 20.0 µM | perc_max_measured ([2]; HeLa-ACE2 cytotoxicity): 109.886% | perc_min_measured ([2]; HeLa-ACE2 cytotoxicity): 55.576% | CC50 at 24 h [3]: > 20 µM | clint [4]: 137.0 µL/min/mg | perc_remaining [4]: 10.0% | t_half [4]: 12.2 min | perc_remaining_no_cofactor [4]: 92.0% | papp_a_to_b_mean [5, 11]: 9.35 ×10⁻⁶ cm/s | papp_a_to_b_mean [5, 12]: 0.0964 ×10⁻⁶ cm/s | papp_b_to_a_mean ([5]; In vitro MDR1-MDCKII permeability, B to A, no inhibitor): 6.5 ×10⁻⁶ cm/s | efflux_ratio [5, 12]: 67.2 | perc_recovery_a_to_b_mean [5, 13]: 80.2% | perc_recovery_a_to_b_mean [5, 14]: 69.4% | perc_recovery_b_to_a_mean ([5]; In vitro MDR1-MDCKII permeability, recovery B to A, no inhibitor): 79.8% | perc_recovery_a_to_b_inhibitor_mean ([5]; MDR1-MDCKII, recovery A to B, with inhibitor Verapamil): 78.2% | perc_recovery_b_to_a_inhibitor_mean ([5]; MDR1-MDCKII, recovery B to A, with inhibitor Verapamil): 81.1% | logd [6]: 3.7 | solubility_mean [7]: 28 µM (≈ 12.4 µg/mL) | perc_max_measured [8]: 70.604% | perc_min_measured [8]: 3.388% | EC50 [8]: 0.858 µM | EC90 [8]: > 20 µM

CCNC(=O)c1cc2c(N[C@H](c3ccc4c(c3)OCCO4)C(C)C)ncnc2[nH]1 [ASAP-0013824]
clint [1, 9]: 48.0 µL/min/mg | perc_remaining [1, 9]: 47.0% | t_half [1, 9]: 34.6 min | perc_remaining_no_cofactor [1, 10]: 94.0% | CC50 ([2]; HeLa-ACE2 cytotoxicity): > 20 µM | cc10 ([2]; HeLa-ACE2 cytotoxicity): > 20.0 µM | perc_max_measured ([2]; HeLa-ACE2 cytotoxicity): 99.37% | perc_min_measured ([2]; HeLa-ACE2 cytotoxicity): 90.423% | clint [4]: 67.0 µL/min/mg | perc_remaining [4]: 32.0% | t_half [4]: 24.8 min | perc_remaining_no_cofactor [4]: 100.0% | papp_a_to_b_mean [5, 12]: 2.7 ×10⁻⁶ cm/s | perc_recovery_a_to_b_mean [5, 14]: 94.3% | logd [6]: 3.6 | solubility_mean [7]: 263 µM (≈ 104 µg/mL) | perc_max_measured [8]: 109.949% | perc_min_measured [8]: 49.504% | EC50 [8]: 19.7 µM | EC90 [8]: > 20 µM

CC(C)[C@@H](Nc1ncnc2[nH]c(-c3cnn(C)c3)cc12)c1ccc2c(c1)S(=O)(=O)NCC2 [ASAP-0011192]
clint [1, 9]: 87.0 µL/min/mg | perc_remaining [1, 9]: 23.0% | t_half [1, 9]: 19.1 min | perc_remaining_no_cofactor [1, 10]: 92.0% | CC50 ([2]; HeLa-ACE2 cytotoxicity): > 20 µM | cc10 ([2]; HeLa-ACE2 cytotoxicity): > 20.0 µM | perc_max_measured ([2]; HeLa-ACE2 cytotoxicity): 100.208% | perc_min_measured ([2]; HeLa-ACE2 cytotoxicity): 90.498% | CC50 at 24 h [3]: > 20 µM | clint [4]: 120.0 µL/min/mg | perc_remaining [4]: 13.0% | t_half [4]: 13.9 min | perc_remaining_no_cofactor [4]: 98.0% | papp_a_to_b_mean [5, 11]: 1.58 ×10⁻⁶ cm/s | perc_recovery_a_to_b_mean [5, 13]: 93.2% | logd [6]: 3.2 | solubility_mean [7]: 105 µM (≈ 47.4 µg/mL) | perc_max_measured [8]: 105.419% | perc_min_measured [8]: 69.993% | EC50 [8]: > 20 µM | EC90 [8]: > 20 µM

CCNC(=O)c1cc2c(N[C@H](c3ccc4c(c3)OCCO4)C(C)C)ncnc2[nH]1 (single isomer, unassigned) [ASAP-0013827]
clint [1, 9]: 72.0 µL/min/mg | perc_remaining [1, 9]: 29.0% | t_half [1, 9]: 23.2 min | perc_remaining_no_cofactor [1, 10]: 92.0% | perc_max_measured ([2]; HeLa-ACE2 cytotoxicity): 106.128% | perc_min_measured ([2]; HeLa-ACE2 cytotoxicity): 83.696% | clint [4]: 1329.0 µL/min/mg | perc_remaining [4]: 1.0% | t_half [4]: 1.3 min | perc_remaining_no_cofactor [4]: 97.0% | papp_a_to_b_mean [5, 12]: 2.9 ×10⁻⁶ cm/s | perc_recovery_a_to_b_mean [5, 14]: 81.7% | logd [6]: 3.6 | solubility_mean [7]: 13 µM (≈ 5.14 µg/mL) | perc_max_measured [8]: 113.12% | perc_min_measured [8]: 80.543% | EC50 [8]: > 20 µM | EC90 [8]: > 20 µM

CCNC(=O)c1cc2c(N[C@@H](c3ccc4c(c3)S(=O)(=O)NCC4)C(C)C)ncnc2[nH]1 [ASAP-0011076]
clint [1, 9]: 45.0 µL/min/mg | perc_remaining [1, 9]: 49.0% | t_half [1, 9]: 36.8 min | perc_remaining_no_cofactor [1, 10]: 101.0% | CC50 ([2]; HeLa-ACE2 cytotoxicity): > 20 µM | cc10 ([2]; HeLa-ACE2 cytotoxicity): > 20.0 µM | perc_max_measured ([2]; HeLa-ACE2 cytotoxicity): 99.412% | perc_min_measured ([2]; HeLa-ACE2 cytotoxicity): 92.285% | CC50 at 24 h [3]: > 20 µM | clint [4]: 85.0 µL/min/mg | perc_remaining [4]: 24.0% | t_half [4]: 19.7 min | perc_remaining_no_cofactor [4]: 107.0% | papp_a_to_b_mean [5, 11]: 1.96 ×10⁻⁶ cm/s | perc_recovery_a_to_b_mean [5, 13]: 97.7% | logd [6]: 2.6 | solubility_mean [7]: 344 µM (≈ 152 µg/mL) | perc_max_measured [8]: 101.15% | perc_min_measured [8]: 78.382% | EC50 [8]: > 20 µM | EC90 [8]: > 20 µM

C[C@@H](C(=O)O)[C@H](NC(=O)c1ncnc2[nH]ccc12)c1ccc(Br)cc1 [ASAP-0014726]
CC50 ([2]; HeLa-ACE2 cytotoxicity): > 20 µM | cc10 ([2]; HeLa-ACE2 cytotoxicity): > 20.0 µM | perc_max_measured ([2]; HeLa-ACE2 cytotoxicity): 106.212% | perc_min_measured ([2]; HeLa-ACE2 cytotoxicity): 72.067% | CC50 at 24 h [3]: > 20 µM | perc_max_measured [8]: 129.968% | perc_min_measured [8]: 44.709%

Cc1nn(C)cc1-c1cc2c(N[C@H](c3ccc4c(c3)S(=O)(=O)CCC4)C(C)C)ncnc2[nH]1 (single isomer, unassigned) [ASAP-0011448]
clint [1, 9]: 390.0 µL/min/mg | perc_remaining [1, 9]: 1.0% | t_half [1, 9]: 4.3 min | perc_remaining_no_cofactor [1, 10]: 103.0% | CC50 [2, 15]: > 20 µM | cc10 [2, 15]: > 20.0 µM | perc_max_measured [2, 15]: 94.816% | perc_min_measured [2, 15]: 77.647% | clint [4]: 251.0 µL/min/mg | perc_remaining [4]: 2.0% | t_half [4]: 6.6 min | perc_remaining_no_cofactor [4]: 116.0% | papp_a_to_b_mean [5, 11]: 3.69 ×10⁻⁶ cm/s | perc_recovery_a_to_b_mean [5, 13]: 77.9% | logd [6]: 3.4 | solubility_mean [7]: 63 µM (≈ 29.3 µg/mL) | perc_max_measured [8]: 131.643% | perc_min_measured [8]: 93.649% | EC50 [8]: > 20 µM | EC90 [8]: > 20 µM

COc1ccc([C@@H](Cc2nnn[nH]2)NC(=O)c2ncnc3[nH]ccc23)cc1 [ASAP-0015384]
CC50 ([2]; HeLa-ACE2 cytotoxicity): > 20 µM | cc10 ([2]; HeLa-ACE2 cytotoxicity): > 20.0 µM | perc_max_measured ([2]; HeLa-ACE2 cytotoxicity): 99.805% | perc_min_measured ([2]; HeLa-ACE2 cytotoxicity): 83.484% | CC50 at 24 h [3]: > 20 µM | perc_max_measured [8]: 136.92% | perc_min_measured [8]: 93.837% | EC50 [8]: > 20 µM | EC90 [8]: > 20 µM

CNCc1cc(-c2cc3c(N[C@@H](c4ccc5c(c4)S(=O)(=O)CCC5)C(C)C)ncnc3[nH]2)co1 [ASAP-0010745]
clint [1, 9]: 52.0 µL/min/mg | perc_remaining [1, 9]: 41.0% | t_half [1, 9]: 32.2 min | perc_remaining_no_cofactor [1, 16]: 108.0% | clint [4]: 57.0 µL/min/mg | perc_remaining [4]: 40.0% | t_half [4]: 29.4 min | perc_remaining_no_cofactor [4]: 110.0% | papp_a_to_b_mean [5, 11]: 1.61 ×10⁻⁶ cm/s | perc_recovery_a_to_b_mean [5, 13]: 90.5% | logd [6]: 2.1 | solubility_mean [7]: 321 µM (≈ 154 µg/mL)

CNC(=O)c1cc2c(N[C@@H](c3ccc4c(c3)NC(=O)CO4)C(C)C)ncnc2[nH]1 [ASAP-0008571]
clint [1, 9]: 20.0 µL/min/mg | perc_remaining [1, 9]: 71.0% | t_half [1, 9]: 84.4 min | perc_remaining_no_cofactor [1, 10]: 103.0% | clint [4]: 52.0 µL/min/mg | perc_remaining [4]: 39.0% | t_half [4]: 32.0 min | perc_remaining_no_cofactor [4]: 94.0% | papp_a_to_b_mean [5, 11]: 0.873 ×10⁻⁶ cm/s | perc_recovery_a_to_b_mean [5, 13]: 88.1% | logd [6]: 2.8 | solubility_mean [7]: 372 µM (≈ 147 µg/mL)

CNC(=O)c1c[nH]c2ncnc(N[C@H](c3ccc4c(c3)NC(=O)CO4)C(C)C)c12 (racemic) [ASAP-0008637]
clint [1, 9]: 113.0 µL/min/mg | perc_remaining [1, 9]: 16.0% | t_half [1, 9]: 14.8 min | perc_remaining_no_cofactor [1, 10]: 95.0% | clint [4]: 86.0 µL/min/mg | perc_remaining [4]: 23.0% | t_half [4]: 19.5 min | perc_remaining_no_cofactor [4]: 98.0% | papp_a_to_b_mean [5, 11]: 4.26 ×10⁻⁶ cm/s | perc_recovery_a_to_b_mean [5, 13]: 97.4% | logd [6]: 3.2 | solubility_mean [7]: 28 µM (≈ 11 µg/mL)

COc1ccc([C@H](CC(=O)O)NC(=O)c2ncnc3[nH]ccc23)cc1 (racemic) [ASAP-0000591]
clint [1, 9]: 2.0 µL/min/mg | perc_remaining [1, 9]: 94.0% | t_half [1, 9]: 686.4 min | perc_remaining_no_cofactor [1, 16]: 96.0% | clint [4]: 7.0 µL/min/mg | perc_remaining [4]: 87.0% | t_half [4]: 240.4 min | perc_remaining_no_cofactor [4]: 88.0% | papp_a_to_b_mean [5, 11]: 1.7 ×10⁻⁶ cm/s | perc_recovery_a_to_b_mean [5, 13]: 90.0% | logd [6]: -0.38 | solubility_mean [7]: ≥ 400 µM

CC(C)[C@@H](Nc1ncnc2[nH]c(-c3cnn(C)c3C#N)cc12)c1ccc2c(n1)NC(=O)CO2 [ASAP-0008644]
clint [1, 9]: 145.0 µL/min/mg | perc_remaining [1, 9]: 9.0% | t_half [1, 9]: 11.5 min | perc_remaining_no_cofactor [1, 10]: 92.0% | clint [4]: 70.0 µL/min/mg | perc_remaining [4]: 30.0% | t_half [4]: 23.7 min | perc_remaining_no_cofactor [4]: 97.0% | papp_a_to_b_mean [5, 11]: 9.83 ×10⁻⁶ cm/s | perc_recovery_a_to_b_mean [5, 13]: 91.2% | logd [6]: 3.7 | solubility_mean [7]: 29 µM (≈ 12.9 µg/mL)
